{"source": "patent US8017727B2", "about": "“Conjugates of membrane translocating agents and pharmaceutically active agents” (Merrion Research III Limited, priority 1999, dated 2011)", "key": {"[1]": {"assay": "3H tissue distribution of kappa peptide conjugates, conscious rat model", "format": "in vivo, Wistar rats", "details": "ID, 100 μCi, potency corrected", "protocol": "The tissue was weighed and a representative sample, (ca 0.1 g), was removed to a scintillation vial. The tissue was solubilzed with 1 ml of BTS-450 (an organic tissue solubliser). Ten ml of scintillation fluid was added and the radioactivity was measured. The radioactivity was expressed as dpm/initial weight of tissue."}, "Caco-2 cell monolayers": {"tested_on": "Caco-2 cell monolayers", "assay": "Permeability of tritiated kappa peptide conjugates through differentiated Caco-2 cell monolayers", "format": "in vitro ADME, human", "details": "n=5", "protocol": "Highest transport values were obtained in the first 30 min followed by a 2-4 fold decrease at 60 min. The significance of these findings is unclear. The data may be indicative of dual binding/uptake events occurring through i) a kappa receptor specific mechanism and ii) direct membrane interaction through lipid interaction of the membrane permeable peptide."}, "[2]": {"assay": "Systemic 3H bioavailability of kappa peptide conjugates, conscious rat model (plasma)", "format": "in vivo, Wistar rats", "details": "intraduodenal (ID), 100 μCi; for bioavailability: rat, plasma, potency corrected, read-out: Absolute 3H bioavailability", "protocol": "The possible enhancing effects of ELAN094 and ELAN207 MTLPs (SEQ ID NOs 2 and 60) on intestinal absorption of the kappa peptide were examined in a conscious rat model.\nThe study was non-randomised, parallel group design. Wistar rats within the 250-350 g weight range were used. All animals were fasted for a period of 16 h prior to study initiation. Water was available at all times.\nIntravenous injection of 10 μCi of ^3H-kappa peptide-Kaffiralin-1 (plain kappa peptide) (tail vein injection).\nIntraduodenal instillation of 100 μCi of ^3H-kappa peptide-Elan094 (Analysed). The Elan094 ligand contains a membrane translocating sequence.\nIntraduodenal instillation of 100 μCi of ^3H-kappa peptide-Elan207 (Analysed). The Elan207 ligand contains a membrane translocating sequence.\nIntraduodenal instillation of 100 μCi of ^3H-kappa peptide-Kaffiralin-1.\nThe plasma (100-250 μl) was made up to 1 ml with BTS-450 (an organic tissue solubiliser) and incubated for 1 hour. Ten ml of Scintillation fluid was added and the radioactivity was measured.\nThe study was a non-randomised, parallel group biostudy designed to evaluate the systemic bioavailability of tritium labelled kappa peptide conjugates after intra-duodenal instillation in the conscious rat model. Each rat only received one treatment and the plasma samples were analysed for tritium content. The calculation of AUClast, Amax, tmax, Volume of Distribution (V d) and Clearance was based on base line corrected data. The absolute bioavailability was calculated using potency corrected data."}, "[3]": {"assay": "Solubility of ZElan094 (physical characteristics)", "format": "physicochemical", "details": "water"}, "Caco-2 monolayers [4]": {"tested_on": "Caco-2 monolayers", "assay": "Transport of reporter molecule 3H-fMLP across Caco-2 monolayers", "format": "cell-based, human", "details": "for % inhibition 3H-fMLP transport: flux measured over 2 h", "protocol": "The effect of the MTLPs ZElan094, ZElan178 and ZElan187 (SEQ ID NOS: 2, 7 and 16) and of the targeting peptide ZElan022 (U.S. patent application Ser. Nos. 09/079,819, 09/079,723 AND 09/079,678, AND PCT A[…]/US98/10088, PUBLISHED AS WO 98/51325) on the transport of the dipeptide ^14C-gly-sar and of the reporter molecule ^3H-fMLP across Caco-2 monolayers was determined. The Caco-2 monolayers were grown on Transwell-Snapwells. Cell viability was determined by measuring TEER of the Caco-2 monolayers during each experiment. No significant drop in TEER was measured. Cell permeability was determined by measuring mannitol flux across the Caco-2 monolayers during each experiment. No increase in mannitol flux was measured in the presence of the MTLP ZElan094.\nThe flux of the dipeptide ^14C-gly-sar and of the reporter molecule ^3H-fMLP across the Caco-2 monolayers in the absence and in the presence of the MTLPs ZElan094, ZElan178 and ZElan187 (SEQ ID NOS: 2, 7 and 16) and of the targeting peptide ZElan022 (U.S. patent application Ser. Nos. 09/079,819, 09/079,723 AND 09/079,678), AND PCT A[…]/US98/10088, PUBLISHED AS WO 98/51325 was measured over 2 h, and reduction in the permeability coefficient was determined in the presence of cold substrates.\nCaco-2 monolayers were grown and tested for viability as in Example 11. Transport of ^3H-fMLP across Caco-2 monolyers was measured in the presence from 0 to 200 μg/ml of the MTLP ZElan094."}, "Caco-2 monolayers [5]": {"tested_on": "Caco-2 monolayers", "assay": "Transport of dipeptide 14C-gly-sar across Caco-2 monolayers", "format": "cell-based, human", "parameters": "key to % inhibition 14C-gly-sar transport: NS: no significant difference between experimental (+MTLP) and control cells (−MTLP) in the transport of radiolabeled drug", "details": "flux measured over 2 h", "protocol": "The effect of the MTLPs ZElan094, ZElan178 and ZElan187 (SEQ ID NOS: 2, 7 and 16) and of the targeting peptide ZElan022 (U.S. patent application Ser. Nos. 09/079,819, 09/079,723 AND 09/079,678, AND PCT APPLICATION PCT/US98/10088, PUBLISHED AS WO 98/51325) on the transport of the dipeptide ^14C-gly-sar and of the reporter molecule ^3H-fMLP across Caco-2 monolayers was determined. The Caco-2 monolayers were grown on Transwell-Snapwells. Cell viability was determined by measuring TEER of the Caco-2 monolayers during each experiment. No significant drop in TEER was measured. Cell permeability was determined by measuring mannitol flux across the Caco-2 monolayers during each experiment. No increase in mannitol flux was measured in the presence of the MTLP ZElan094.\nThe flux of the dipeptide ^14C-gly-sar and of the reporter molecule ^3H-fMLP across the Caco-2 monolayers in the absence and in the presence of the MTLPs ZElan094, ZElan178 and ZElan187 (SEQ ID NOS: 2, 7 and 16) and of the targeting peptide ZElan022 (U.S. patent application Ser. Nos. 09/079,819, 09/079,723 AND 09/079,678), AND PCT APPLICATION PCT/US98/10088, PUBLISHED AS WO 98/51325 was measured over 2 h, and reduction in the permeability coefficient was determined in the presence of cold substrates."}, "Caco-2 cells": {"tested_on": "Caco-2 cells", "assay": "Delivery of DNA from MTLP coated liposomes into Caco-2 cells (β-galactosidase expression)", "format": "cell-based, human", "details": "versus lipofectamine+DNA and lipofectamine+DNA+protamine control liposomes", "protocol": "DNA delivery into Caco-2 cells from liposomes and from MTLP coated liposomes was calculated as β-galactosidase expression per mg of total protein in the cell supernatant. β-galactosidase expression was determined using the Boehringer Mannheim chemiluminescence kit. Protein was determined using the Pierce Micro bichinconate (BCA) protein assay.\nCaco-2 cells were plated at 1×10^5 cells/well in 1 ml of culture media and incubated at 37° C. in 5% CO2 overnight. The cells were washed twice in 0.5 ml of optiMEM. ZElan094, 204N or 204 (SEQ ID NOS: 2, 23, 24) (Solution 4, Example 9) were each added to triplicate wells (250 μl/well) of the washed cells and incubated for 4 h at 37° C. After 4 h, 250 μl of optiMEM containing 2× fetal calf serum was added and the cells were incubated for an additional 20 h at 37° C. At 24 h post-transfection, the cells were lysed with Boehringer Mannheim Lysis Buffer. The lysate was centrifuged for 2 min at 14,000 rpm in an Eppendorf Centrifiguge and the supernatant was collected."}}, "note": "Like-named read-outs stand apart in the source and are kept apart here. Non-standard residues stand in square brackets, D forms with d. Residues, ends and D or L forms follow the SMILES beside them.", "data": [{"compound": "CC[C@@H](C)[C@@H](NC(=O)[C@@H](Cc1ccccc1)NC(=O)[C@@H](Cc1ccccc1)NC(=O)[C@@H](CCCCN)NC(=O)[C@H]1CCCN1C(=O)[C@@H](C)NC(=O)[C@@H](C)NC(=O)[C@@H](CC(C)C)NC(=O)[C@@H](CC(C)C)NC(=O)[C@H](NC(=O)[C@H]1CCCN1C(=O)[C@@H](CC(C)C)NC(=O)[C@@H](CC(C)C)NC(=O)[C@H](NC(=O)[C@@H](C)NC(=O)[C@@H](C)NC(=O)[C@@H](C)NC(=O)[C@@H](CCCCN)NC(=O)[C@H](N)CCCCN)C(C)C)C(C)C)C(=O)N[C@H](CCCNC(=N)N)C(N)=O", "note": "[3H-Kappa peptide-Elan 207] (H-[dK][dK][dA][dA][dA][dV][dL][dL][dP][dV][dL][dL][dA][dA][dP][dK][dF][dF][dI][dR]-NH2; N-terminus and C-terminus assumed)", "values": [{"measurement": "Catheter, % of administered dose", "setting": "[1]", "value": "0.14 ± 0.09", "unit": "%"}, {"measurement": "GI Tissue, % of administered dose", "setting": "[1]", "value": "4.08 ± 2.47", "unit": "%"}, {"measurement": "GI Washing, % of administered dose", "setting": "[1]", "value": "9.60 ± 16.65", "unit": "%"}, {"measurement": "GI contents, % of administered dose", "setting": "[1]", "value": "26.34 ± 17.00", "unit": "%"}, {"measurement": "Liver, % of administered dose", "setting": "[1]", "value": "0.47 ± 0.20", "unit": "%"}, {"measurement": "Total GI (% recovery from GI tissue, GI contents & GI wash)", "setting": "[1]", "value": "40.03 ± 23.23", "unit": "%"}, {"measurement": "Kidney, % of administered dose", "setting": "[1]; t=6 h", "value": "0.17 ± 0.07", "unit": "%"}, {"measurement": "Plasma, % of administered dose", "setting": "[1]; t=6 h", "value": "0.10 ± 0.01", "unit": "%"}, {"measurement": "Total Recovery, % of administered dose", "setting": "[1]; t=6 h", "value": "40.91 ± 23.32", "unit": "%"}, {"measurement": "Plasma, % of administered dose", "setting": "[1]; t=6 h, listed as 3H-Kappa peptide Elan207", "value": "0.10±0.01", "unit": "%"}, {"measurement": "permeability compared to the kappa peptide control", "setting": "Caco-2 cell monolayers", "value": "No significant increase"}, {"measurement": "3H AUClast", "setting": "[2]; (Repeat) group", "value": "249021.32±37503.78", "unit": "dpm/ml·h"}, {"measurement": "3H Amax (maximum radioactivity)", "setting": "[2]; (Repeat) group", "value": "201464.40±44854.19", "unit": "dpm/ml"}, {"measurement": "fold increase in absolute 3H bioavailability versus kappa peptide without ligand", "setting": "[2]; (Repeat) group", "value": "approx. 2 fold"}, {"measurement": "3H AUClast", "setting": "[2]; Elan207 = original group", "value": "162743.70±13549.10", "unit": "dpm/ml·h"}, {"measurement": "3H Amax (maximum radioactivity)", "setting": "[2]; Elan207 = original group", "value": "100041.17±6274.57", "unit": "dpm/ml"}, {"measurement": "fold increase in absolute 3H bioavailability versus kappa peptide without ligand", "setting": "[2]; listed as Elan207 MTLP", "value": "> 1.5", "unit": "fold"}, {"measurement": "bioavailability", "setting": "[2]; (Repeat) group", "value": "16.6 ± 2.5", "unit": "%"}, {"measurement": "bioavailability", "setting": "[2]; Elan207 = original group", "value": "11.5 ± 0.96", "unit": "%"}]}, {"compound": "CC(C)C[C@H](NC(=O)[C@H](CC(C)C)NC(=O)[C@@H](NC(=O)[C@@H]1CCCN1C(=O)[C@H](CC(C)C)NC(=O)[C@H](CC(C)C)NC(=O)[C@@H](NC(=O)[C@H](C)NC(=O)[C@H](C)NC(=O)[C@H](C)NC(=O)[C@H](CCCCN)NC(=O)[C@H](CCCCN)NC(=O)[C@@H](N)CCCCNS(=O)(=O)c1cccc2c(N(C)C)cccc12)C(C)C)C(C)C)C(=O)N[C@@H](C)C(=O)N[C@@H](C)C(=O)N1CCC[C@H]1C(N)=O", "note": "[ZElan094]", "values": [{"measurement": "solubility", "setting": "[3]", "value": 1000, "unit": "µg/mL"}, {"measurement": "% inhibition 3H-fMLP transport", "setting": "Caco-2 monolayers [4]; listed as 094", "value": 77.2, "unit": "%"}, {"measurement": "% inhibition 3H-fMLP transport", "setting": "Caco-2 monolayers [4]; listed as ZElan 094", "value": "inhibited transport"}, {"measurement": "inhibition of 3H-fMLP transport", "setting": "Caco-2 monolayers [4]; range 0 to 200 μg/ml", "value": "inhibited"}, {"measurement": "% inhibition 14C-gly-sar transport", "setting": "Caco-2 monolayers [5]", "value": "NS"}, {"measurement": "inhibition of 14C-gly-sar transport", "setting": "Caco-2 monolayers [5]", "value": "did not inhibit transport"}]}, {"compound": "H-K(ε-dansyl)AAVLLPVLLAAKKKRKA-NH2 ({K(dansyl)}-AAVLLPVLLAAKKKRKA-NH2) [ZElan204N]", "values": [{"measurement": "DNA delivery into and expression within Caco-2 cells", "setting": "Caco-2 cells", "value": "most effective"}]}]}
